The values below come from US10576059B2, “Substituted phenylpyrrolecarboxamides with therapeutic activity in HIV” (New York Blood Center, Inc., priority 2014, dated 2020).

The target in data set [1] is T1, HIV-1 Integrase (Human immunodeficiency virus type 1 group M subtype B, UniProt P04585).
T1 construct: HIV-1 Integrase Assay Kit from ExpressBio; purchased ExpressBio (Thurnmont, Md.)
Put plainly: HIV-1 Integrase Assay. It counts as biochemical. The settings on record: HIV-1 Integrase Assay Kit from ExpressBio. How it is done: HIV-1 Integrase was performed as per the protocol in the HIV-1 Integrase Assay Kit from ExpressBio (Thurnmont, Md.). (See Table 3)

Data set [2] relates to laboratory-adapted HIV-1 strains. Description: microbe, parasite or virus in culture. It counts as cell-based. Conditions: Laboratory strain SF2, subtype B, MT-2, co-receptor R5X4; read-out: IC50 (μm).
Data set [3] relates to MT-2 cells. Description: Cytotoxicity in MT-2 cells (XTT). Type of data set: cell-based. Conditions: 4 days. As to the method:
Cytotoxicity of test compounds in MT-2 cells was measured a by colorimetric method using XTT [(sodium 3′-(1-(phenylamino)-carbonyl)-3,4-tetrazolium-bis(4-methoxy-6-nitro) benzenesulfonic acid hydrate)] (PolySciences) as previously described^7. Briefly, 100 μl of a test compound at graded concentrations was added to an equal volume of cells (1×10^5 cells/ml) in 96 well plates followed by incubation at 37° C. for 4 days, which ran parallel to the neutralization assay in MT-2. Following the addition of XTT the soluble intracellular formazan was quantitated colorimetrically at 450 nm 4 h later. […] (See Table 4)
Background: Tetrazolium dyes change colour on reduction, which living cells bring about.

Data set [4] relates to PBMC. Description: Cytotoxicity in PBMC (XTT). Type of data set: cell-based. The settings on record: 7 days. How it is done: For the PBMC toxicity assay we used 5×10^5 cells/ml and the cytotoxicity of the compounds was measured after 7 days of incubation as previously reported^8. Following the addition of XTT the soluble intracellular formazan was quantitated colorimetrically at 450 nm 4 h later. The percent of cytotoxicity and the CC50 values were calculated as above. (See Table 4)

Data set [5] concerns lab-adapted and primary HIV-1 isolates. Conditions: read-out: IC50 (μm); Laboratory strain BaL, subtype B, PBMC, co-receptor R5.
Method: PBMCs were isolated from the blood of healthy donors at the New York Blood Center by standard density gradient centrifugation using Histopaque-1077 (Sigma-Aldrich). The cells were cultured at 37° C. for 2 hr. […] The PHA-stimulated cells (5×10^4 cells/well) were infected with lab-adapted and primary HIV-1 isolates at 500 TCID50 (0.01 MOI) in the absence or presence of inhibitors at graded concentrations. Culture media were replaced every 3 days with fresh media. The supernatants were collected 7 days post-infection and tested for p24 antigen by ELISA. The percent inhibition of p24 production and IC50 values were calculated by the GraphPad Prism software.

As for `CC1(C)CC(NC(=O)C(=O)Nc2ccc(Cl)cc2)CC(C)(C)N1` [NBD-556], the figures for the IC50 in data set [1], in data set [2] and in data set [5] were > 200 µM, 118 µM and 118 µM, respectively. For the same molecule, the CC50 in data set [3] and in data set [4] was > 280 µM in each case.

Broadly, the IC50 is the concentration needed to halve the response being measured. Usually CC50 stands for the concentration giving 50% cytotoxicity.
